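96-well plates; 48 h exposure; 5 concentrations. Endpoints by linear interpolation between flanking doses. Not reached: highest tested concentration assigned. TGI is the concentration that stops growth completely.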
What was measured:
Experiment in all cases: DTP human tumour cell line panel, 48 h
786-0 renal = system: 786-0 renal
A498 renal = system: A498 renal
A549 NSCLC = system: A549 NSCLC
ACHN renal = system: ACHN renal
BT-549 breast = system: BT-549 breast
CAKI-1 renal = system: CAKI-1 renal
CCRF-CEM leukemia = system: CCRF-CEM leukemia
COLO 205 colon = system: COLO 205 colon
DU-145 prostate = system: DU-145 prostate
EKVX NSCLC = system: EKVX NSCLC
HCC-2998 colon = system: HCC-2998 colon
HCT-116 colon = system: HCT-116 colon
HCT-15 colon = system: HCT-15 colon
HL-60(TB) leukemia = system: HL-60(TB) leukemia
HOP-62 NSCLC = system: HOP-62 NSCLC
HOP-92 NSCLC = system: HOP-92 NSCLC
HS 578T breast = system: HS 578T breast
HT29 colon = system: HT29 colon
IGROV1 ovarian = system: IGROV1 ovarian
K-562 leukemia = system: K-562 leukemia
KM12 colon = system: KM12 colon
LOX IMVI melanoma = system: LOX IMVI melanoma
M14 melanoma = system: M14 melanoma
MALME-3M melanoma = system: MALME-3M melanoma
MCF7 breast = system: MCF7 breast
MDA-MB-231 breast = system: MDA-MB-231 breast
MDA-MB-435 = system: MDA-MB-435
MOLT-4 leukemia = system: MOLT-4 leukemia
NCI-H226 lung = system: NCI-H226 lung
NCI-H23 lung = system: NCI-H23 lung
NCI-H460 lung = system: NCI-H460 lung
NCI-H522 lung = system: NCI-H522 lung
NCI/ADR-RES ovarian = system: NCI/ADR-RES ovarian
OVCAR-3 ovarian = system: OVCAR-3 ovarian
OVCAR-4 ovarian = system: OVCAR-4 ovarian
OVCAR-5 ovarian = system: OVCAR-5 ovarian
OVCAR-8 ovarian = system: OVCAR-8 ovarian
PC-3 prostate = system: PC-3 prostate
RPMI-8226 leukemia = system: RPMI-8226 leukemia
RXF 393 renal = system: RXF 393 renal
SF-268 CNS = system: SF-268 CNS
SF-295 CNS = system: SF-295 CNS
SF-539 CNS = system: SF-539 CNS
SK-MEL-2 melanoma = system: SK-MEL-2 melanoma
SK-MEL-28 melanoma = system: SK-MEL-28 melanoma
SK-MEL-5 melanoma = system: SK-MEL-5 melanoma
SK-OV-3 ovarian = system: SK-OV-3 ovarian
SN12C renal = system: SN12C renal
SNB-19 CNS = system: SNB-19 CNS
SNB-75 CNS = system: SNB-75 CNS
SW-620 colon = system: SW-620 colon
T-47D breast = system: T-47D breast
TK-10 renal = system: TK-10 renal
U251 CNS = system: U251 CNS
UACC-257 melanoma = system: UACC-257 melanoma
UACC-62 melanoma = system: UACC-62 melanoma
UO-31 renal = system: UO-31 renal

`O=C1N2CCC[C@H]2CS1(=O)=O` showed a TGI (786-0 renal) of 23.1 µM, a TGI (A498 renal) of 44.5 µM and a TGI (A549 NSCLC) of 47.3 µM. The TGI (ACHN renal) was 29.7 µM, the TGI (BT-549 breast) was 30.2 µM and the TGI (CAKI-1 renal) was 18.2 µM. The TGI (CCRF-CEM leukemia) was 7.1 µM, the TGI (COLO 205 colon) was 28.9 µM and the TGI (DU-145 prostate) was 35.8 µM. The TGI (EKVX NSCLC) was 44.4 µM, the TGI (HCC-2998 colon) was 32.2 µM and the TGI (HCT-116 colon) was 28.1 µM. For the same molecule, the TGI (HCT-15 colon) was 29.4 µM, the TGI (HL-60(TB) leukemia) was 39.3 µM and the TGI (HOP-62 NSCLC) was 32 µM. It also gave a TGI (HOP-92 NSCLC) of 25.7 µM, a TGI (HS 578T breast) of over 100 µM and a TGI (HT29 colon) of 75.1 µM. It also gave a TGI (IGROV1 ovarian) of 34.7 µM, a TGI (K-562 leukemia) of 32.1 µM and a TGI (KM12 colon) of 30.8 µM. For the same molecule, the TGI (LOX IMVI melanoma) was 27.3 µM, the TGI (M14 melanoma) was 31.6 µM and the TGI (MALME-3M melanoma) was 28.3 µM. The TGI (MCF7 breast) was 21.8 µM, the TGI (MDA-MB-231 breast) was 29.6 µM and the TGI (MDA-MB-435) was 36.7 µM. It also gave a TGI (MOLT-4 leukemia) of 22.5 µM, a TGI (NCI-H226 lung) of 72.2 µM and a TGI (NCI-H23 lung) of 34 µM. The TGI (NCI-H460 lung) was 88.1 µM, the TGI (NCI-H522 lung) was 18.5 µM and the TGI (NCI/ADR-RES ovarian) was over 100 µM. It also gave a TGI (OVCAR-3 ovarian) of 31.4 µM, a TGI (OVCAR-4 ovarian) of 28.6 µM and a TGI (OVCAR-5 ovarian) of 93.7 µM. It also gave a TGI (OVCAR-8 ovarian) of 55.1 µM, a TGI (PC-3 prostate) of 31.4 µM and a TGI (RPMI-8226 leukemia) of 10.8 µM. The TGI (RXF 393 renal) was 21.7 µM, the TGI (SF-268 CNS) was 42.7 µM and the TGI (SF-295 CNS) was over 100 µM. It also gave a TGI (SF-539 CNS) of over 100 µM, a TGI (SK-MEL-2 melanoma) of 34.4 µM and a TGI (SK-MEL-28 melanoma) of 41.2 µM. It also gave a TGI (SK-MEL-5 melanoma) of 33.3 µM, a TGI (SK-OV-3 ovarian) of over 100 µM and a TGI (SN12C renal) of 29.1 µM. It also gave a TGI (SNB-19 CNS) of over 100 µM, a TGI (SNB-75 CNS) of 41.2 µM and a TGI (SW-620 colon) of 42.1 µM. The TGI (T-47D breast) was 32.9 µM, the TGI (TK-10 renal) was 32.2 µM and the TGI (U251 CNS) was 30 µM. It also gave a TGI (UACC-257 melanoma) of 37.4 µM, a TGI (UACC-62 melanoma) of 30 µM and a TGI (UO-31 renal) of 28.5 µM.

Source: PubChem BioAssay (NCI)
